Where two headings read alike, the source gives them in different places.
Tests used:
normal rat prostate = test: In vivo antiprostatic activity, prostate wet weight; details: Copenhagen rats, 14 days; AZP 2 mg/kg/day by intraperitoneal infusion mini-pump, DFMO similar amount orally
Protocol: 1-(4-aminobutyl) aziridine, difluoromethylornithine, and a combination of 1-(4-aminobutyl) aziridine and difluoromethylornithine were tested in vivo for antiprostatic activity using Copenhagen rats. The normal rat prostate is often used as a model or control for drugs which are suspected of having antiprostatic cancer activity. Sloan, et al., Cancer Chemother. Rep. 59: 185-194 (1975). 1-(4-aminobutyl) aziridine, difluoromethylornithine, and a combination of 1-(4-aminobutyl) aziridine and difluoromethylornithine were administered to twenty-eight (28) Copenhagen rats for 14 days. 1-(4-aminobutyl) aziridine was administered by an infusion mini-pump implanted intraperitoneally.
Difluoromethylornithine was administered orally. The 1-(4-aminobutyl) aziridine was delivered at a rate of 2 mg/kg/day. A similar amount of difluoromethylornithine was administered orally on a daily basis. Before loading the infusion pump, the pH of 1-(4-aminobutyl) aziridine was adjusted to 7.5 with hydrochloric acid. The pump rate was 0.5 u./hr.
The prostates of the twenty-eight (28) subjects were removed, freed of fat and weighed to the nearest milligram.

PC-3 cells = test: Polyamine assays: intracellular polyamine levels by HPLC; format: cell-based, human; details: PC-3, ±1 mM DFMO 48 h, then ±25 μM AZP 1 h
Protocol: One h later the medium was aspirated and the cells were rinsed with cold HBSS. Three plates were treated with dilute trypsin to release the cells from the plate and provide a single cell suspension. The viability of the cells and the number of cells per plate were determined by trypan blue exclusion and counting with the aid of a hemocytometer. […] The other three plates were extracted with 0.4N perchloric acid and the polyamines were measured by fluorescence following postcolumn derivatization with o-phthalaldehyde following separation by the reverse phase ion-pair high performance liquid chromatography procedure of Wagner et al., J. Chomatogr., 227: 349-368, 1982.
In Table 2 are listed the values for the triplicate assays of the concentrations of polyamine observed in nontreated cells, cells treated with 1-(4-aminobutyl) aziridine for 1 h, cells pretreated for 48 h with 1 mM difluoromethylornithine and then incubated in drug free medium for 1 h, or cells pretreated for 48 h with difluoromethylornithine, rinsed free of difluoromethylornithine, and then incubated with 25 μM 1-(4-aminobutyl)aziridine for 1 h. All groups had cell viabilities greater than 95% and cell numbers were 4.9±0.6 (SE), 4.9±0.7, 4.8±0.4, and 4.6±0.4×10^6 cells for the control, 1-(4-aminobutyl) aziridine, difluoromethylornithine, and difluoromethylornithine+1-(4-aminobutyl) aziridine groups, respectively. The apparent amount of 1-(4-aminobutyl) aziridine in the difluoromethylornithine-treated cells was 3.7 times that of the 1-(4-aminobutyl) aziridine-only-treated cells. No N^8 -acetylspermidine, acetylputrescine, or cadaverine was detected in any group. A peak was detected at a wavelength of 254 nm in the difluoromethylornithine treatment groups that corresponds to the retention time of decarboxylated S-adenosylmethionine.
^a PC-3 cells were incubated with or without 1 mM DFMO for 48 h. Cell
were then rinsed free of DFMO and incubated for 1 h with 25 μM AZP. Th
cells were washed free of AZP by three rinses of HBSS. With one set of
triplicate plates, the cells were resuspended and counted by hemocytomete
and viability was determined by trypan dye exclusion (viability > 95%).
Another set triplicate plates was extracted with icecold perchloric acid
and filtered and the polyamine concentrations were determined by HPLC.
^b Mean ± SE for a triplicate assay. Histamine is included as a […]

[1] = system: PC-3 human prostatic carcinoma cell line; test: cells; format: cell-based
Protocol: FIG. 3. Effect of AZP on the growth of PC-3 cells with or without DFMO pretreatment. PC-3 cells (3×10^4) were plated in 60-mm^2 Petri dish in RPMI 1640-10% FCS and allowed to attach overnight. The following day the medium was aspirated and replaced with RPMI 1640, 10% FCS, 100 μM aminoguanidine with or without 1 mm DFMO. Forty-eight h later the medium was aspirated, the dishes were rinsed once with HBSS, and the cells were incubated with RPMI 1640-10% FCS-100 μM aminoguanidine with or without 25 μM AZP for 1 h. Following the 1-h incubation the medium was aspirated, the plates were rinsed twice with HBSS, and the incubation was continued with fresh RPMI 1640-10% FCS-100 μM aminoguanidine. At the indicated times following initial plating the cells were lifted from the plate by trypsinization and were examined for their ability to exclude trypan blue. Total cell counts were obtained with the aid of a hemocytometer, and the completeness of the removal of the cells from the dish was verified by the examination of each dish with the inverted microscope. , control; Δ, DFMO; .circle., AZP; .quadrature., DFMO+AZP. Points, means; bars, SE.
FIG. 4. Dose-effect relationship of AZP on the growth on PC-3 prostatic cancer cells. PC-3 cells (3×10^4) were plated in RPMI 1640-10% FCS in 60-mm^2 Petri dishes and allowed to attach overnight. The following day the medium was aspirated and replaced with RPMI 1640-10% FCS-100 μM aminoguanidine with or without 1 mm DFMO. Forty-eight h later the medium was aspirated, and the cells were rinsed once with HBSS and replaced with RPMI 1640-10% FCS-100 μM aminoguanidine with or without the indicated μM concentrations of AZP. After a 1-h incubation the medium was aspirated, the cells were rinsed twice with HBSS, and the incubation was continued with fresh RPMI 1640-10% FCS-100 μM aminoguanidine. Eight days following plating the cells were lifted from the plates by trypsinization and were counted with the aid of a hemocytometer and expressed as a percentage of control (100% without DFMO, 212±31×10^4; 100% with DFMO pretreatment, 219±25× 10^4 cells, respectively). , DFMO pretreated; .circle., without DFMO.
Assays of cell growth were performed by plating 3×10^4 PC-3 cells in RPMI 1640 medium with 10% FCS and allowing them to attach overnight. The following morning the medium was replaced with incubation medium consisting of RPMI 1640, 10% FCS, 100 μM aminoguanidine, 100 units/ml of penicillin, 100 μg/ml of streptomycin, and 2 mM glutamine, with or without 1 mM difluoromethylornithine. Two days later the medium was aspirated and replaced with or without 1-(4-aminobutyl) aziridine at the designated concentration usually for 1 h or for the designated length of time. Following the 1-h incubation, the medium of all groups was aspirated and the dishes were rinsed with HBSS and replaced with fresh incubation medium. Either daily or 8 days following plating, the Petri dishes were rinsed with HBSS and the cells were lifted from the plate by trypsinization. The dishes were examined for completeness of cell removal by examination with an inverted microscope. The cells were counted with a Zeiss microscope using a hemocytometer. Tumor cell population doubling time was determined by ploting the natural logarithm (ln) of the number of cells versus the days following plating. The slope of this line was determined using the Memorial Sloan-Kettering Cancer Center Clin computer system statistical analysis package. Doubling time (DT) was determined as ln 2/slope=DT. Statistical differences in cell number between groups were determined by Student's t statistic with the aid of the Memorial Sloan-Kettering Cancer Center Clin computer using the statistics program.
^a Thirty thousand PC3 cells were plated in 60mm^2 Petri dishes i
RPMI 164010% FCS. The next day the medium was aspirated and replaced with
RPMI 164010% FCS medium with 100 μM aminoguanidine with or without 1 m
DFMO. Fortyeight h later the medium was aspirated. […]

[2] = system: human prostate cancer cell line PC-3; test: cells; format: cell-based
Protocol: Aziridinyl putrescine 1-(4-aminobutyl) aziridine was synthesized using the method as described by Piper, et al., J. Med. Chem. 12: 236-243 (1968). Cells of the human prostate cancer cell line PC-3 were used.
10^3 PC-3 human cells were plated in RPMI 1640 with 10% FCS/3 ml in 60 mm^2 petri dishes. The cell plates were incubated either with, or without difluoromethylornithine for 48 hours. This was followed by aspiration, and replacement with a medium containing either no additives, 50 uM 1-(4-aminobutyl) aziridine, 1 mM putrescine, or both 50 uM 1-(4-aminobutyl) aziridine and 1 mM putrescine. The media were aspirated after 1 hour, and replaced with a drug free medium. Incubation continued for 5 days.
*Represents mean number of colonies ± one standard deviation of
triplicate assay. Number in parenthesis is percent of control.

[3] = system: uptake of [14C]putrescine into PC-3 cells; format: cell-based, human
Protocol: FIG. 1. Lineweaver-Burk plot of the uptake of [^14 C]putrescine by DFMO-pretreated cells. The ordinate is expressed as 1/pmol/15 min. The abscissa is expressed as 1 μM concentrations containing from 16 to 1.0 μM [^14 C]putrescine.
Fifty thousand PC-3 cells were plated in 12-well plates and 18 h later the incubation medium was removed and replaced with 1 ml or RPMI 1640 medium containing 25 mM 4-(2-hydroxyethyl)-1-piperazineethansulfonic acid buffer, 100 μM aminoguanidine, and 10% FCS. Forty-eight h later the medium was replaced with medium which contained [^14 C]putrescine in concentrations ranging from 16 to 1.0 μM with or without 5 1M 1-(4-aminobutyl) aziridine. Following incubation at 37° C. for 15 min the [^14 C]putrescine-containing medium was aspirated, and the cells were rinsed rapidly 4 times with HBSS. Following the last rinse, 1.0 ml of a solution of 0.1N NaOH was added and after a 2-h incubation at room temperature a 0.2-ml aliquot was added to 1 ml of 2% glacial acidic acid and 10 ml of Scintiverse 1 scintillation cocktail and the radioactive disintegrations were determined with a Packard Tri-Carb 300 scintillation spectrophotometer. Counting efficiency for ^14 C was 80%. Kinetic analysis of uptake was performed by graphic methods as described by Dixon and Webb, Enzymes, p. 322, New York Academic Press (1959).
In FIG. 1 a Lineweaver-Burk plot of the uptake of [^14 C]-putrescine into the PC-3 cells is presented and was used to determine the Km (intercept x axis) and Vmax (intercept y axis) for putrescine.

[4] = PC-3, 48 h with or without DFMO, then 1 h with 50 uM AZP and/or 1 mM putrescine, 5 days drug free

SMILES	Dorsal Lateral Prostate, milligram wet weight (SEM) (normal rat prostate)	Ventral Prostate, milligram wet weight (SEM) (normal rat prostate)	Cell numbers at end of treatment (PC-3 cells; SE)	Polyamine levels: Hist (histamine, nonpolyamine control) (PC-3 cells; mean ± SE)	Polyamine levels: NaSpm (N-acetylspermine) (PC-3 cells; mean ± SE)	Polyamine levels: PUT (putrescine) (PC-3 cells; mean ± SE)	Polyamine levels: Spd (spermidine) (PC-3 cells; mean ± SE)	Polyamine levels: Spm (spermine) (PC-3 cells; mean ± SE)	Cells per dish on day 8 following plating ([1]; PC-3, 3×10^4 plated, ±1 mM DFMO 48 h, ±25 μM AZP 1 h, mean±SD of triplicates)	Doubling time ([1]; PC-3, 25 μM AZP 1 h or 1 mM DFMO 48 h, mean±SE)	Inhibition of proliferation of human prostate cancer cells in culture ([2]; AZP at 50 uM, from Table 1)	Clonogenic survivors (mean number of colonies ± one standard deviation) [2, 4]	Clonogenic survivors, percent of control [2, 4]	Cell no. [1]	Growth-inhibitory activity toward PC-3 cells (in words) [1]	Cell no. as a percentage of control ([1]; pc-3 cells, 11520 min)	Km [3]	Vmax of putrescine uptake [3]	Vmax of putrescine uptake ([3]; PC-3 cells, without difluoromethylornithine pretreatment)
NCCCC(N)(C(=O)O)C(F)F (stereo not shown) [DFMO, difluoromethylornithine, reference compound]	445 ± 32 milligram	377 ± 16 milligram	4.8±0.4 ×10^6 cells	98 ± 26 pmol/10^6	130 ± 10 pmol/10^6	192 ± 34 pmol/10^6	171 ± 66 pmol/10^6	3046 ± 554 pmol/10^6	340±54 ×10^4 cells per dish	1.14 ± 0.05 days	little effect	549 ± 57 colonies	94%						
NCCCCN [PUT, 1,4-butanediamine, reference compound]														438 ± 16 × 10^-4	no growth-inhibitory activity	106%	2.5 µM	190 pmol/15 min/10^5 cells	40 pmol/15 min/10^5 cells

Source: patent publication US4925835A, “Aziridinyl putrescine containing compositions and their uses in treating prostate cancer” (priority 1987, dated 1990)
